Measurements from paper PMC10311946 (ACS chemical biology, 2023).
Where “and” joins values, the source holds several entries; their conditions need not be identical. Equal entries are not always repeated. Entries after “also recorded” stand apart in the source; their conditions may differ. Where two headings read alike, the source gives them in different places.

Experiments:
[1] = test system: fluoroacetyl-CoA hydrolase; conditions: cited from earlier work
E. coli FabH = conditions: for activating potential for FabH decarboxylation of malonyl-CoA to acetoacetyl-CoA: FabH incubated with 125 μM analog then 250 μM malonyl-CoA, HPLC progress curves; for Initial rate of hydrolysis to CoA or oxa(dethia)CoA / Initial rate, malonyl-CoA → acetyl-CoA/acetoacetyl-CoA: FabH wt, 10 μM FabH; for time to reaction completion: FabH
FabH [2] = target: T1, FabH (Escherichia coli, UniProt P0A6R0); assay: continuous UV-Vis assay for the production of acetoacetyl-CoA; type: biochemical; conditions: for effect on FabH activity with acetyl-CoA and malonyl-CoA as substrates: UV-Vis assays
FabH C112Q = type: biochemical, Escherichia coli; conditions: for Initial rate of hydrolysis to CoA or oxa(dethia)CoA / Initial rate, malonyl-CoA → acetyl-CoA/acetoacetyl-CoA: FabH C112Q, 10 μM enzyme; for stability with the FabH C112Q mutant: over 24 hours, 10 μM FabH C112Q
FabH [3] = target: T1, FabH; conditions: cited from earlier work
[4] = non-enzymatic stability/hydrolysis in buffer followed by HPLC; type: physicochemical; conditions: for Non-enzymatic hydrolysis rate: pH 6 and 7
citrate synthase = conditions: cited from earlier work
phosphotransacetylase = conditions: cited from earlier work
[5] = pH 8, ~250 μM substrate or analog
[6] = competition with malonyl-CoA binding assumed, pH 8.0, 50 mM Mg2+
[7] = pH 6, ~250 μM substrate or analog
[8] = pH 7, ~250 μM substrate or analog
[9] = varying malonyl-CoA, acetyl-CoA at 125 μM, substrate inhibition model

T1 sequence (P0A6R0 whole entry): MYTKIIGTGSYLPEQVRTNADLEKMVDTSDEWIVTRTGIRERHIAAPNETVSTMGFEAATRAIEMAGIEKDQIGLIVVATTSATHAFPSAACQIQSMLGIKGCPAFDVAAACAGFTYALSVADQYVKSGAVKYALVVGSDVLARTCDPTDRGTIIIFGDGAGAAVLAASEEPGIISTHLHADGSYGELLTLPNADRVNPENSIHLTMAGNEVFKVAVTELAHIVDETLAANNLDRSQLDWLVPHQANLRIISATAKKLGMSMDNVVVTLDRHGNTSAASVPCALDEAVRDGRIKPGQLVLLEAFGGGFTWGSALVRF

Q: With `CC(C)(COP(=O)(O)OP(=O)(O)OC[C@H]1O[C@@H](n2cnc3c(N)ncnc32)[C@H](O)[C@@H]1OP(=O)(O)O)[C@@H](O)C(=O)NCCC(=O)NCCSC(=O)CF` [fluoroacetyl-CoA] as the compound, how does the Km [1] read?
A: Its Km is 8 µM.

Q: What does the source list for `CC(=O)OCCNC(=O)CCNC(=O)[C@H](O)C(C)(C)COP(=O)(O)OP(=O)(O)OC[C@H]1O[C@@H](n2cnc3c(N)ncnc32)[C@H](O)[C@@H]1OP(=O)(O)O` [compound 1, acetyl-oxa(dethia)CoA]?
A: activating potential for FabH decarboxylation of malonyl-CoA to acetoacetyl-CoA (E. coli FabH): not strong activators; Initial rate of hydrolysis to CoA or oxa(dethia)CoA (E. coli FabH; [5]): ~ 0.003 min^−1; effect on FabH activity with acetyl-CoA and malonyl-CoA as substrates (FabH [2]): slightly activating; also recorded: did not find inhibition; also recorded: a couple percent activation; Ki (FabH [2]; [6]): weak activation; Initial rate of hydrolysis to CoA or oxa(dethia)CoA (FabH C112Q; [5]): ~ 0.001 min^−1

Q: For `CC(=O)SCCNC(=O)CCNC(=O)[C@H](O)C(C)(C)COP(=O)(O)OP(=O)(O)OC[C@H]1O[C@@H](n2cnc3c(N)ncnc32)[C@H](O)[C@@H]1OP(=O)(O)O` [acetyl-CoA], which transthiolation rate (FabH [3]) is on record?
A: The transthiolation rate was 0.05 s⁻¹.

Q: And the Km (FabH [3]; read-out: apparent KM, pH 7.0, malonyl-S-ACP as acceptor ref 32, 35)?
A: Its Km is 40 µM.

Q: What about the “Initial rate of hydrolysis to CoA or oxa(dethia)CoA” value (from here on “Initial rate of hydrolysis”) (E. coli FabH; [7]) of the same compound?
A: The value was 0.0004 ± 0.0001 min⁻¹.

Q: And the “Initial rate of hydrolysis” value (E. coli FabH; [8])?
A: Its value is 0.0010 ± 0.0001 min⁻¹.

Q: What about the “Initial rate of hydrolysis” value (E. coli FabH; [5]) of the same compound?
A: The value was 0.0038 ± 0.0002 min⁻¹.

Q: And the Km (FabH [2]; read-out: apparent Km, varying acetyl-CoA with 125 μM malonyl-CoA)?
A: The Km was 0.3 ± 0.1 µM.

Q: What about the “Initial rate of hydrolysis” value (FabH C112Q; [7]) of the same compound?
A: Its value is 0.0005 ± 0.0001 min⁻¹.

Q: And the “Initial rate of hydrolysis” value (FabH C112Q; [8])?
A: The value was 0.0006 ± 0.0001 min⁻¹.

Q: And the “Initial rate of hydrolysis” value (FabH C112Q; [5])?
A: Its value is 0.0030 ± 0.0001 min⁻¹.

Q: And the Non-enzymatic hydrolysis rate [4]?
A: The Non-enzymatic hydrolysis rate was ~ 0.0004 min^−1.

Q: What about the “Non-enzymatic hydrolysis rate at pH 8 relative to pH 6 and 7” value [4] of the same compound?
A: The value was ~ 10 times higher.

Q: What about the Km (citrate synthase) of the same compound?
A: The Km was 8.5 µM.

Q: And the Km (phosphotransacetylase)?
A: The Km was 210 µM.

Q: With `CC(C)(COP(=O)(O)OP(=O)(O)OCC1OC(n2cnc3c(N)ncnc32)C(O)C1OP(=O)(O)O)C(O)C(=O)NCCC(=O)NCCNC(=O)CF` (stereo not drawn) [fluoroacetyl-aza(dethia)CoA] as the compound, how does the Kd [1] read?
A: The Kd was 1700 µM.

Q: With `CC(=O)NCCNC(=O)CCNC(=O)[C@H](O)C(C)(C)COP(=O)(O)OP(=O)(O)OC[C@H]1O[C@@H](n2cnc3c(N)ncnc32)[C@H](O)[C@@H]1OP(=O)(O)O` [compound 2, acetyl-aza(dethia)CoA] as the compound, how does the “activating potential for FabH decarboxylation of malonyl-CoA to acetoacetyl-CoA” value (E. coli FabH) read?
A: The value was “not strong activators”.

Q: What about the “effect on FabH activity with acetyl-CoA and malonyl-CoA as substrates” value (FabH [2]) of the same compound?
A: Its value is “moderate inhibitor”.

Q: And the Ki (FabH [2]; competition with malonyl-CoA binding assumed)?
A: Its Ki is 800 µM.

Q: And the Ki (FabH [2]; [6])?
A: Its Ki is 800 ± 100 µM.

Q: And the Ki (citrate synthase)?
A: The Ki was 1.6 µM.

Q: And the Ki (phosphotransacetylase)?
A: The Ki was 130 µM.

Q: With `CC(C)(COP(=O)(O)OP(=O)(O)OC[C@H]1O[C@@H](n2cnc3c(N)ncnc32)[C@H](O)[C@@H]1OP(=O)(O)O)[C@@H](O)C(=O)NCCC(=O)NCCO` [compound 5, oxa(dethia)CoA] as the compound, how does the Ki (FabH [2]; [6]) read?
A: The Ki was 400 ± 200 µM.

Q: Which results are given for `CC(C)(COP(=O)(O)OP(=O)(O)OC[C@H]1O[C@@H](n2cnc3c(N)ncnc32)[C@H](O)[C@@H]1OP(=O)(O)O)[C@@H](O)C(=O)NCCC(=O)NCCOC(=O)CC(=O)O` [compound 3, malonyl-oxa(dethia)CoA]?
A: Decarboxylation by FabH (E. coli FabH): not detected; Initial rate of hydrolysis to CoA or oxa(dethia)CoA (E. coli FabH; [5]): ~ 0.001 min^−1; Ki (FabH [2]; [6]): 800 ± 400 µM; Decarboxylation by C112Q mutant (FabH C112Q): not detected; Initial rate of hydrolysis to CoA or oxa(dethia)CoA (FabH C112Q; [5]): ~ 0.001 min^−1; stability with the FabH C112Q mutant (FabH C112Q): relatively unreactive

Q: Which results are given for `CC(C)(COP(=O)(O)OP(=O)(O)OC[C@H]1O[C@@H](n2cnc3c(N)ncnc32)[C@H](O)[C@@H]1OP(=O)(O)O)[C@@H](O)C(=O)NCCC(=O)NCCNC(=O)CC(=O)O` [compound 4, malonyl-aza(dethia)CoA]?
A: Ki (FabH [2]; [6]): 700 ± 300 µM; stability with the FabH C112Q mutant (FabH C112Q): completely stable

Q: For `CC(C)(COP(=O)(O)OP(=O)(O)OC[C@H]1O[C@@H](n2cnc3c(N)ncnc32)[C@H](O)[C@@H]1OP(=O)(O)O)[C@@H](O)C(=O)NCCC(=O)NCCOC(=O)CF` [fluoroacetyl-oxa(dethia)CoA], which Kd [1] is on record?
A: The Kd was 90 µM.

Q: With `CC(C)(COP(=O)(O)OP(=O)(O)OC[C@H]1O[C@@H](n2cnc3c(N)ncnc32)[C@H](O)[C@@H]1OP(=O)(O)O)[C@@H](O)C(=O)NCCC(=O)NCCS` [CoA] as the compound, how does the Ki (FabH [2]; [6]) read?
A: The Ki was 150 ± 70 µM.

Q: For `CC(C)(COP(=O)(O)OP(=O)(O)OC[C@H]1O[C@@H](n2cnc3c(N)ncnc32)[C@H](O)[C@@H]1OP(=O)(O)O)[C@@H](O)C(=O)NCCC(=O)NCCN` [compound 6, aza(dethia)CoA], which Ki (FabH [2]; [6]) is on record?
A: The Ki was 900 ± 400 µM.

Q: What does the source list for `CC(C)(COP(=O)(O)OP(=O)(O)OC[C@H]1O[C@@H](n2cnc3c(N)ncnc32)[C@H](O)[C@@H]1OP(=O)(O)O)[C@@H](O)C(=O)NCCC(=O)NCCSC(=O)CC(=O)O` [malonyl-CoA]?
A: Initial rate, malonyl-CoA → acetyl-CoA/acetoacetyl-CoA (E. coli FabH; pH 7, ~250 μM substrate): biphasic; Initial rate, malonyl-CoA → acetyl-CoA/acetoacetyl-CoA (E. coli FabH; pH 8, ~250 μM substrate, 25 μM acetyl-CoA to alleviate lag phase, value is for acetoacetyl-CoA appearance): 0.043 ± 0.001^‡ min^−1; time to reaction completion (E. coli FabH; malonyl-CoA with priming acetyl-CoA (10% of malonyl-CoA)): about 250 min; time to reaction completion (E. coli FabH; malonyl-CoA without priming acetyl-CoA (Figure 2J)): 620 min; Ki (FabH [2]; read-out: Ki (substrate inhibition), varying malonyl-CoA, acetyl-CoA at 125 μM, substrate inhibition model): 1900 ± 600 µM; Km (FabH [2]; [9]): 2500 µM and ~2500 µM; kcat (FabH [2]; [9]): 0.0983 ± 0.0233 s⁻¹; FabH C112Q decarboxylation relative to activated wild-type in the absence of acetyl-CoA (FabH C112Q): 5 times faster; Initial rate of hydrolysis to CoA or oxa(dethia)CoA (FabH C112Q; [7]): 0.0005 ± 0.0001 min⁻¹; Initial rate, malonyl-CoA → acetyl-CoA/acetoacetyl-CoA (FabH C112Q; pH 6, ~250 μM substrate): 0.0060 ± 0.0006 min⁻¹; Initial rate of hydrolysis to CoA or oxa(dethia)CoA (FabH C112Q; [8]): 0.0007 ± 0.0001 min⁻¹; Initial rate, malonyl-CoA → acetyl-CoA/acetoacetyl-CoA (FabH C112Q; pH 7, ~250 μM substrate): 0.18 ± 0.01 min⁻¹; Initial rate of hydrolysis to CoA or oxa(dethia)CoA (FabH C112Q; [5]): 0.0032 ± 0.0005 min⁻¹; Initial rate, malonyl-CoA → acetyl-CoA/acetoacetyl-CoA (FabH C112Q; pH 8, ~250 μM substrate): 0.20 ± 0.02 min⁻¹; Non-enzymatic hydrolysis rate [4]: ~ 0.0004 min^−1; Non-enzymatic hydrolysis rate at pH 8 relative to pH 6 and 7 [4]: ~ 10 times higher
